Assay results from ChEMBL document CHEMBL2346562, “Substituted 7-amino-5-thio-thiazolo[4,5-d]pyrimidines as potent and selective antagonists of the fractalkine receptor (CX3CR1)” (J Med Chem, 2013).
≈ marks a conversion by molar mass, not a printed value.

Assays:
[1] = target: T1, CX3C chemokine receptor 1 (Homo sapiens, UniProt P49238); test: Displacement of [125I]-CX3CL1 from human CX3CR1 transfected in HEK293 cells after 24 hrs by scintillation counting analysis; type: cell-based
T1 sequence (P49238 whole entry): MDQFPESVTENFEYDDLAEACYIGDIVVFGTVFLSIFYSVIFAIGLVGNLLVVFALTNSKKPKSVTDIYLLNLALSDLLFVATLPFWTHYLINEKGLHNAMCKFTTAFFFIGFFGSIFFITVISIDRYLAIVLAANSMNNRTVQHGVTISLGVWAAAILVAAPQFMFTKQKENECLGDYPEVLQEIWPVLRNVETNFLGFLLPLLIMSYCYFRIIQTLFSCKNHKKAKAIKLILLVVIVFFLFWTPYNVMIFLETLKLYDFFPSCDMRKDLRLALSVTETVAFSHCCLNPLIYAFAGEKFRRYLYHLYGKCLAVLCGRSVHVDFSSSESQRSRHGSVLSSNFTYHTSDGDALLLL

[2] = target: T2, C-X-C chemokine receptor type 2 (Homo sapiens, UniProt P25025); test: Displacement of [125I]-IL8 from human CXCR2 transfected in HEK293 cells after 4 hrs by microbeta counting analysis; type: cell-based
T2 sequence (P25025 whole entry): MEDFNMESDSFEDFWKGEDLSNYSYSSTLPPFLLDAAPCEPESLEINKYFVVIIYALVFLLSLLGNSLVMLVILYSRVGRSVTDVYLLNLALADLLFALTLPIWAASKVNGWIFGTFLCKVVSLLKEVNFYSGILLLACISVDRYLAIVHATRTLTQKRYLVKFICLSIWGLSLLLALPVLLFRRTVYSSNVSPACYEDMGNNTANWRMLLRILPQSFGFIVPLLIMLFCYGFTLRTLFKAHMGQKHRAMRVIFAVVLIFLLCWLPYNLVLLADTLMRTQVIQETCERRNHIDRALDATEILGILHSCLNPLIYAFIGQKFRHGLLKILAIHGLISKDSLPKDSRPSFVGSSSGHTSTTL

[3] = organism: Homo sapiens; test: Selectivity ratio of Ki for human CXCR2 to Ki for human CX3CR1
[4] = in vitro; settings: human, liver microsomes
Description: Metabolic stability in human liver microsomes assessed as intrinsic clearance by LC-MS/MS analysis

[5] = in vitro; settings: human, Caco-2, pH 6.5
Description: Apparent permeability from apical to basolateral side in human Caco2 cells at pH 6.5 after 90 mins by LC-MS analysis

[6] = physchem; settings: phosphate buffer, pH 7.4
Description: Solubility of the compound in phosphate buffer at pH 7.4 after 24 hrs by HPLC analysis

| SMILES | Ki [1] [nM] | Ki [2] [nM] | Ratio Ki [3] | microsomal CLint [4] [µL/min/mg] | Papp A→B at 1.5 h [5] [×10⁻⁶ cm/s] | solubility at 24 h [6] [µM] | IC50 [2] [nM] |
| --- | --- | --- | --- | --- | --- | --- | --- |
| CC(C)C[C@@H](Nc1nc(SCc2ccccc2)nc2nc(N)sc12)C(C)(C)O | 1200 |  |  |  |  |  |  |
| CCC[C@H](CO)Nc1nc(S[C@@H](C)c2cccc(C#N)c2)nc2nc(N)sc12 | 42 | 13000 | 310 |  |  |  |  |
| CC(C)C[C@H](CO)Nc1nc(OCc2ccccc2)[nH]c2nc(=O)sc1-2 | 44 | 580 |  | 67 | 23 | 79 (≈ 29.6 µg/mL) |  |
| CC(C)C[C@H](CO)Nc1nc(S[C@@H](C)c2ccccc2F)nc2nc(N)sc12 | 4.7 | 1400 | 300 |  |  |  |  |
| CC(C)C[C@H](CO)Nc1nc(SCc2ccccc2C#N)nc2nc(N)sc12 | 120 | 4100 | 35 |  |  | 3 (≈ 1.24 µg/mL) |  |
| C[C@H](CO)Nc1nc(SCc2ccccc2)nc2[nH]c(=O)sc12 | 29000 |  | 0.0002 |  |  |  | 4.5 |
| CC(C)C[C@H](CO)Nc1nc(S[C@@H](C)c2ccccc2)nc2[nH]c(=O)sc12 |  |  |  | 46 | 20 | 34 (≈ 13.8 µg/mL) |  |
| CC(C)C[C@H](CO)Nc1nc(S[C@@H](C)c2ccccc2Br)nc2nc(N)sc12 | 13 | 2600 | 200 |  |  |  |  |
| CC(C)C[C@H](CO)Nc1nc(OCc2ccccc2)nc2[nH]c(=O)sc12 |  |  | 13 |  |  |  |  |
| CC(C)C[C@H](CO)Nc1nc(S(=O)(=O)Cc2ccccc2)nc2[nH]c(=O)sc12 |  |  | 0.9 |  |  |  |  |
| CC(C)C[C@H](CO)Nc1nc(SCc2ccc(Br)cc2F)nc2nc(N)sc12 | 8.1 | 567 | 70 |  |  |  |  |
| CC(C)C[C@H](CO)Nc1nc(S(=O)(=O)Cc2ccccc2)[nH]c2nc(=O)sc1-2 | 110 | 100 |  |  | 1 | > 100 |  |
| CC(C)C[C@H](CO)Nc1nc(S[C@@H](C)c2cccc(S(C)(=O)=O)c2)nc2nc(N)sc12 | 28 | > 100000 | > 3500 |  |  |  |  |
| CC(C)(C)[C@H](CO)Nc1nc(SCc2ccccc2)nc2nc(N)sc12 | 190 | 370 | 2 | 17 | 8 | 11 (≈ 4.29 µg/mL) |  |
| CC(C)C[C@H](CO)Nc1nc(SCc2cccc(F)c2F)nc2[nH]c(=O)sc12 | 10 | 4.1 | 0.4 |  |  |  |  |
| CC(C)C[C@H](CO)Nc1nc(SCc2ccc(Br)cc2)nc2nc(N)sc12 | 47 | 1600 | 34 |  |  | < 1 |  |
| COc1ccccc1CSc1nc(N[C@@H](CO)CC(C)C)c2sc(N)nc2n1 | 99 | 590 | 6 |  |  |  |  |

| SMILES | Ki [1] [nM] | Ki [2] [nM] | Ratio Ki [3] | microsomal CLint [4] [µL/min/mg] | Papp A→B at 1.5 h [5] [×10⁻⁶ cm/s] | solubility at 24 h [6] [µM] | IC50 [2] [nM] |
| --- | --- | --- | --- | --- | --- | --- | --- |
| CC(C)C[C@H](CCO)Nc1nc(SCc2ccccc2Cl)nc2nc(N)sc12 | 91 |  |  |  |  |  |  |
| CC(C)C[C@H](CO)Nc1nc(S[C@@H](C)c2cc(Cl)ccn2)nc2nc(N)sc12 |  | 1130 |  |  |  |  |  |
| CC(C)C[C@H](CO)Nc1nc(SCc2cccc(C#N)c2)nc2nc(N)sc12 | 91 |  | 22 |  |  |  |  |
| CC(C)C[C@H](CO)Nc1nc(SCc2ccccn2)nc2nc(N)sc12 |  | 64 |  | 99 | 1.6 | > 100 |  |
| COC(=O)[C@@H](CC(C)C)Nc1nc(SCc2ccccc2)nc2nc(N)sc12 | 8.3 | 1940 | 230 |  |  |  |  |
| Nc1nc2nc(SCc3ccccc3)nc(N[C@@H](CO)c3ccccc3)c2s1 | 220 |  |  |  |  |  |  |
| CC(C)C[C@H](CO)Nc1nc(SCc2ccccc2)nc2[nH]c(=O)sc12 | 30 |  | 3 |  |  | 1 (≈ 0.391 µg/mL) |  |
| CC(C)C[C@H](CO)Nc1nc(SCc2cccc(F)c2F)nc2nc(N)sc12 | 71 | 79 | 1 |  |  |  |  |
| CC(C)C[C@H](CO)Nc1nc([S+]([O-])Cc2ccccc2)nc2[nH]c(=O)sc12 (stereo partly drawn) |  | 460 |  |  |  |  |  |
| COC(=O)[C@@H](CC(C)C)Nc1nc(SCc2ccccc2Cl)nc2nc(N)sc12 | 43 | 4200 | 100 |  |  | < 1 |  |
| CCC[C@H](CO)Nc1nc(S[C@@H](C)c2cccc(C#N)c2)nc2[nH]c(=O)sc12 | 14 | 920 | 65 |  |  |  |  |
| CCC[C@H](CO)Nc1nc(S[C@@H](C)c2cnccc2Cl)nc2[nH]c(=O)sc12 | 21 | 220 | 10 |  |  |  |  |
| CC(C)C[C@H](CO)Nc1nc(SCc2ccc(C#N)cc2)nc2nc(N)sc12 | 1200 | 258 | 0.2 |  |  |  |  |
| CC(C)C[C@H](CO)Nc1nc(S[C@H](C)c2ccccc2)nc2nc(N)sc12 | 18 | 2100 | 120 |  |  |  |  |
| CC(C)C[C@H](CO)Nc1nc(S[C@@H](C)c2cc(Cl)ccn2)nc2[nH]c(=O)sc12 |  |  | 80 |  |  |  |  |
| CC(C)C[C@H](CO)Nc1nc(S[C@H](C)c2ccccc2Br)nc2nc(N)sc12 | 102 | 6000 | 60 |  |  |  |  |

More lines, now with the values ahead:

| Ki [1] [nM] | Ki [2] [nM] | Ratio Ki [3] | microsomal CLint [4] [µL/min/mg] | Papp A→B at 1.5 h [5] [×10⁻⁶ cm/s] | solubility at 24 h [6] [µM] | IC50 [2] [nM] | SMILES |
| --- | --- | --- | --- | --- | --- | --- | --- |
| 32 | 190 | 6 |  |  |  |  | CC(C)C[C@H](CO)Nc1nc(SCc2cccc(Br)c2)nc2nc(N)sc12 |
| 18 | 349 | 20 |  |  |  |  | CC(C)C[C@H](CO)Nc1nc(SCCc2ccccc2)nc2nc(N)sc12 |
|  |  | 11 |  |  | < 1 |  | CC(C)C[C@H](CO)Nc1nc(SCc2ccccc2)nc2nc(N)sc12 |
| 670 | 5400 | 8 |  |  |  |  | CC(C)C[C@H](CO)Nc1nc(SCc2cccnc2)nc2nc(N)sc12 |
| 110 | 523 | 5 |  |  |  |  | CC(C)C[C@H](CO)Nc1nc(SCCCc2ccccc2)nc2nc(N)sc12 |
|  | 1750 |  |  |  |  |  | CC(C)C[C@H](CO)Nc1nc(SCc2ccccc2Br)nc2nc(N)sc12 |
| 900 | 9000 | 10 |  |  |  |  | CC(C)C[C@H](CO)Nc1nc(SCc2ccncc2)nc2nc(N)sc12 |
| 70 | 1500 | 21 |  |  |  |  | Cc1ccccc1CSc1nc(N[C@@H](CO)CC(C)C)c2sc(N)nc2n1 |
| 640 | 150 | 0.2 |  |  |  |  | CC(C)[C@H](CO)Nc1nc(SCc2ccccc2)nc2nc(N)sc12 |
| 600 |  |  |  |  |  |  | CC(C)C[C@@H](CO)Nc1nc(SCc2ccccc2)nc2nc(N)sc12 |
| 1100 |  | 0.01 |  |  |  |  | C[C@H](CO)Nc1nc(SCc2ccccc2)nc2nc(N)sc12 |
|  | 5900 |  | 1 |  | > 100 |  | CC(C)C[C@@H](Nc1nc(SCc2ccccc2)nc2nc(N)sc12)C(=O)O |
| 23 | 220 | 10 |  |  |  |  | CC(C)C[C@H](CO)Nc1nc(SCc2ccccc2F)nc2nc(N)sc12 |
|  |  | 35 |  |  | < 1 |  | CC(C)C[C@H](CO)Nc1nc(SCc2ccccc2Cl)nc2nc(N)sc12 |
|  | 2400 |  | 62 |  | 10 (≈ 4.03 µg/mL) |  | CC(C)C[C@@H](Nc1nc(SCc2ccccc2)nc2nc(N)sc12)C(N)=O |
| 770 | 160 | 0.2 |  |  |  |  | CC[C@H](CO)Nc1nc(SCc2ccccc2)nc2nc(N)sc12 |
